Test results published in PMC4750852, “Synergistic Malaria Parasite Killing by Two Types of Plasmodial Surface Anion Channel Inhibitors” (PLoS ONE, 2016).
Like-named read-outs stand apart in the source and are kept apart here.

Legend:
[1] = tested on: P. knowlesi channel (PSAC); assay: Osmotic lysis kinetics in rhesus erythrocytes infected with P. knowlesi; format: cell-based; conditions: 3 μM inhibitor with 200 μM furosemide
Experimental: (§1) Enriched cells were washed in HBS (150 mM NaCl, 20 mM Na-HEPES, 0.1 mg/mL BSA, pH 7.5) and used for continuous tracking of osmotic lysis in permeant solutes as described. PSAC-mediated uptake was initiated by resuspension of cells in osmotic lysis solutions containing 20 mM Na-HEPES, 0.1 mg/mL BSA with permeant solute or salt added at 280–290 mOsm; where present, inhibitors were added from concentrated stocks in DMSO. Osmotic swelling and lysis at 37°C was then kinetically tracked by recording the transmittance of 700 nm light through the 1 mL cell suspension (Beckman Coulter spectrophotometer, Indianapolis, IN). Regular manual resuspension was used to minimize the effects of cell settling. Solute permeability was calculated using locally developed script as described. The data are presented with normalization to inhibitor-free controls included in each experiment.

[2] = tested on: P. falciparum; assay: Parasite growth inhibition, SYBR Green I assay, 72 h; format: cell-based, Plasmodium falciparum; conditions: for Improvement in growth IC50 in PGIM relative to standard medium: ratio of IC50 standard RPMI 1640-based medium to PGIM, present and prior studies [2]
Experimental: Efficacy of inhibitors against in vitro parasite growth was evaluated with the SYBR Green I assay for parasite nucleic acid as described. […] These cultures were then lysed (20 mM Tris, 10 mM EDTA, 0.016% saponin, 1.6% Triton X-100, pH 7.5) and incubated for 45 min with SYBR Green I nucleic acid stain at a 5000-fold dilution (Invitrogen, Waltham, MA). The mean fluorescence of replicate wells (excitation, 485 nm; emission, 528 nm) was used to quantify parasite DNA content and growth after normalization to in-plate controls with and without 20 μM chloroquine (100 and 0% growth inhibition, respectively).

[3] = tested on: P. falciparum; assay: Fixed-ratio combination growth inhibition, isobologram analysis; format: cell-based, Plasmodium falciparum; conditions: combination of 0.82 μM cpd 1 and 0.35 μM PRT1-20
Experimental: Efficacy of inhibitors against in vitro parasite growth was evaluated with the SYBR Green I assay for parasite nucleic acid as described. […] These cultures were then lysed (20 mM Tris, 10 mM EDTA, 0.016% saponin, 1.6% Triton X-100, pH 7.5) and incubated for 45 min with SYBR Green I nucleic acid stain at a 5000-fold dilution (Invitrogen, Waltham, MA). The mean fluorescence of replicate wells (excitation, 485 nm; emission, 528 nm) was used to quantify parasite DNA content and growth after normalization to in-plate controls with and without 20 μM chloroquine (100 and 0% growth inhibition, respectively). Growth inhibition resulting from combinations of PSAC inhibitors was similarly evaluated using fixed ratios of the two compounds [28]. For each experiment, […] of the two inhibitors (10:0, 9:1, …, 1:9, 0:10) were prepared based on the optimal concentrations of each in isolated growth inhibition dose responses. For each ratio, serial dilutions were used to generate dose responses and permit calculation of IC50 values by interpolation; in each experiment, matched dose responses were included for each compound in isolation. […] For each inhibitor combination, synergistic action was quantified using the ∑FIC50 (sum of fractional inhibitor concentrations producing 50% block); values of this parameter below 0.7 indicate strong synergistic action.

[4] = tested on: plasmodial surface anion channel (PSAC), residual transport; assay: Osmotic lysis kinetics, residual PhTMA+ transport in infected erythrocytes (with a primary component inhibitor present); format: cell-based, Plasmodium falciparum
Experimental: as §1

[5] = tested on: plasmodial surface anion channel (PSAC), primary transport; assay: Osmotic lysis kinetics, primary transport (sorbitol / alanine uptake) in infected erythrocytes; format: cell-based, Plasmodium falciparum
Experimental: as §1

[6] = tested on: plasmodial surface anion channel (PSAC), residual transport; assay: Osmotic lysis kinetics, residual proline transport with 200 μM furosemide; format: cell-based, Plasmodium falciparum; conditions: added to 200 μM furosemide; maximal inhibition less than with PhTMA+
Experimental: as §1, with “Transport measurements used synchronous trophozoite-stage infected erythrocytes enriched from P. falciparum cultures by Percoll/sorbitol separation to > 95% parasitemia. Enriched” for “Enriched”

O=C(COc1ccc2ccccc2c1)Nc1cccc(-c2nc3ncccc3o2)c1 [PRT-3]
Effect on residual PhTMA+ transport via the P. knowlesi channel [1]: inhibit | Improvement in growth IC50 in PGIM relative to standard medium [2]: did not show measurable changes in efficacy in PGIM

CCCCOc1ccc(C(=O)Nc2ccc(-c3nn4c(C)nnc4s3)cc2)cc1 [PRT1-20]
Concentration in the combination as share of the compound's single drug IC50 [3]: approximately 10% | Parasite growth inhibition, single compound ([2]; applied individually, standard RPMI-1640 based media): low micromolar concentrations | Activity against residual PhTMA+ transport compared to PRT-1 ([4]; PhTMA+ with 200 μM furosemide, dose response): improved activity | Action against the primary transport component compared to PRT-1 ([5]; sorbitol without furosemide, dose response): significantly reduced action

CCOc1ccc(C(=O)Nc2ccc(-c3nn4c(C)nnc4s3)cc2)cc1 [PRT-1]
Effect on residual PhTMA+ transport via the P. knowlesi channel [1]: inhibit | Improvement in growth IC50 in PGIM relative to standard medium [2]: did not show measurable changes in efficacy in PGIM | Effect on residual proline transport [6]: clearly reduced proline transport further | IC50 ([4]; PhTMA-Cl plus 100 nM ISG-21, read-out: K0.5 for block of residual PhTMA+ transport): 0.044 µM | IC50 ([4]; PhTMA-Cl plus 2 μM TP-52, read-out: K0.5 for block of residual PhTMA+ transport): 0.056 µM | IC50 ([4]; in combination with 200 μM furosemide, mean ± S.E.M., read-out: K0.5 for block of residual PhTMA+ uptake): 0.19 ± 0.003 µM | IC50 ([5]; sorbitol without furosemide, mean ± S.E.M., read-out: K0.5 against sorbitol uptake (primary channel route)): 0.59 ± 0.043 µM

Cc1ccc(C)c(N2CCN(S(=O)(=O)c3ccc(-c4ccc(=O)[nH]n4)s3)CC2)c1 [ISG-21, reference compound]
IC50 ([2]; PGIM): 0.0173 ± 0.001 µM | IC50 ([2]; PGIM with isoleucine increased to 34 μM): 1.25 ± 0.1 µM | Improvement in growth IC50 in PGIM relative to standard medium [2]: significantly improved activity in PGIM | Fold less effective against residual PhTMA+ transport than against sorbitol uptake ([4]; comparison of K0.5 values, PhTMA+ + 200 μM furosemide vs sorbitol): up to 3000 fold | Effect on sorbitol uptake at selected concentration ([5]; 100 nM ISG-21, 2 μM TP-52, residual uptake of PhTMA+ remains): abolish sorbitol uptake
